The text below walks through data of patent US11674959B2, “Methods for identifying and preparing pharmaceutical agents for activating Tie1 and/or Tie2 receptors” (The Johns Hopkins University, priority 2017, dated 2023).

Assay [1] relates to Tie2. Put plainly: Western blot of MEC lysates, Ang1/2 signaling: Tie2 phosphorylation. The assay is classed as cell-based, human. On the procedure: (§1) To investigate the effects of the integrin inhibitor AXT107 on Tie2 signaling, confluent monolayers of microvascular endothelial cells (MECs) on fibronectin-coated dishes were treated with various concentrations of AXT107 followed by exposure to the Tie2 ligands Ang1 or Ang2.
Human dermal microvascular endothelial cells (Lonza) were maintained at 37° C. and 5% CO2 in EBM-2MV medium (Lonza) and used between passages two through seven. Where applicable, cells were serum starved in EBM-2 medium (Lonza) with no supplements. For FITC-Dextran permeability assays phenol red-free media were used to avoid auto-fluorescence. AXT107 were manufactured at New England Peptide by […], lyophilized, and dissolved in 100% DMSO.
(§2) For Ang1/2 signaling investigations, cell culture dishes (10 cm diameter) were coated with 5 μg/ml fibronectin (FN1; Sigma-Aldrich, St. Louis, Mo.) for two hours at 37° C. The FN1 solution was then removed by aspiration and 5×10^6 microvascular endothelial cells (MECs; Lonza, Walkersville, Md.) were plated in EGM-2MV media (Lonza) and cultured for forty-eight hours at 37° C. The cells were then serum starved for sixteen hours in serum-free EGM-2 base media (Lonza). AXT107 (0-100 μM, as indicated) was subsequently added to each culture and incubated for seventy-five minutes at 37° C. The cultures were then treated with 1 mM sodium vanadate (New England Biolabs, Ipswich, Mass.) for fifteen minutes to enhance the phospho-Tie2 signal followed by stimulation with 200 ng/ml angiopoietin (R&D Systems, Minneapolis, Minn.) for an additional fifteen minutes. The cells were then transferred to ice, washed twice with ice cold Dulbecco's phosphate-buffered saline (dPBS) containing Ca^2+ and Mg^2+, and collected by scraping in 500 μl of 1× Blue Loading Buffer (Cell Signaling, Danvers, Mass.). Lysate samples were then sonicated, boiled, and resolved by SDS-PAGE. Specific proteins were identified by Western blot, using the following primary antibodies: Cell Signaling—phospho-Tie2 (Y992) (Cat #: 4221), Tie2 (Cat #: 7403), phospho-Stat3 (Y705) (Cat #: 4113), Stat3 (Cat #: 4904), phospho-Akt (S473) (Cat #: 4058), Akt (Cat #: 9272), phospho-p44/42 MAPK (T202/Y204) (Cat #: 4370), p44/42 MAPK (Cat #: 4695); BD Transduction Laboratories—β1 integrin (Cat #: 610467); Millipore—α5 integrin (Cat #: AB1928) and detected with HRP-conjugated goat anti-rabbit and sheep anti-mouse secondary antibodies (GE healthcare).
In general terms: Immunoblotting shows a protein as a band on a membrane.

A further assay relates to Erk1/2. The experiment in a line: Western blot of MEC lysates: Erk1/2 phosphorylation. The note with it: all tested conditions. The assay is classed as cell-based, human. How it is done:
as §1
Human dermal microvascular endothelial cells (Lonza) were maintained at 37° C. and 5% CO2 in EBM-2MV medium (Lonza) and used between passages two through seven. Where applicable, cells were serum starved in EBM-2 medium (Lonza) with no supplements. For FITC-Dextran permeability assays phenol red-free media were used to avoid auto-fluorescence. […]
For Ang1/2 signaling investigations, cell culture dishes (10 cm diameter) were coated with 5 μg/ml fibronectin (FN1; Sigma-Aldrich, St. Louis, Mo.) for two hours at 37° C. […] Specific proteins were identified by Western blot, using the following primary antibodies: Cell Signaling—phospho-Tie2 (Y992) (Cat #: 4221), Tie2 (Cat #: 7403), phospho-Stat3 (Y705) (Cat #: 4113), Stat3 (Cat #: 4904), phospho-Akt (S473) (Cat #: 4058), Akt (Cat #: 9272), phospho-p44/42 MAPK (T202/Y204) (Cat #: 4370), p44/42 MAPK (Cat #: 4695); BD Transduction Laboratories—β1 integrin (Cat #: 610467); Millipore—α5 integrin (Cat #: AB1928) and detected with HRP-conjugated goat anti-rabbit and sheep anti-mouse secondary antibodies (GE healthcare).

The target of assay [2] is T1, α5 and β1 integrin subunits (Homo sapiens, UniProt P05556+P08648).
T1 construct: host or cells: human dermal microvascular endothelial cells (MECs)
T1 sequence (P08648 42-894 limits assumed): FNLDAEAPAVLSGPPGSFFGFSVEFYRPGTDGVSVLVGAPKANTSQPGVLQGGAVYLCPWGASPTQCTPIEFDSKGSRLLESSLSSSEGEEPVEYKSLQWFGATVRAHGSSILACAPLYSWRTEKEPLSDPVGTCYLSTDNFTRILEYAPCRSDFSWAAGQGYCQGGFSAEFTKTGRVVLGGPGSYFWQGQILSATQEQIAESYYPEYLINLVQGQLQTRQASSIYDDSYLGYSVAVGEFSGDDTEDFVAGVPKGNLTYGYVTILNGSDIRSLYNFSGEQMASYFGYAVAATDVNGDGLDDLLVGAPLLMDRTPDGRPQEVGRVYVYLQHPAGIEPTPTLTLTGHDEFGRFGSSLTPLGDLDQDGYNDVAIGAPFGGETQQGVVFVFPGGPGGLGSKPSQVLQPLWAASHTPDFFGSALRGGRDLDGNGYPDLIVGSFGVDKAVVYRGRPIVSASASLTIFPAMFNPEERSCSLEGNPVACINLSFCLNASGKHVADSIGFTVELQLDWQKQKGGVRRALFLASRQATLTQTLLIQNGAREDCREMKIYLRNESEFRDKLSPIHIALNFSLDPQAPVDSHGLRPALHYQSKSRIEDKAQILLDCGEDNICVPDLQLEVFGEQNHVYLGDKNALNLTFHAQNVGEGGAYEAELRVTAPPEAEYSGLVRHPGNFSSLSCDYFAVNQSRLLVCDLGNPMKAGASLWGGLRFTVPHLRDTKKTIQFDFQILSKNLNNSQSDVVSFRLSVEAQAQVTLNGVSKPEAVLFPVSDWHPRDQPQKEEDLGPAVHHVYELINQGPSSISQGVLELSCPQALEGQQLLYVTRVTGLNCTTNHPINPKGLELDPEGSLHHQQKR
T1 sequence (P08648 895-1049 limits assumed): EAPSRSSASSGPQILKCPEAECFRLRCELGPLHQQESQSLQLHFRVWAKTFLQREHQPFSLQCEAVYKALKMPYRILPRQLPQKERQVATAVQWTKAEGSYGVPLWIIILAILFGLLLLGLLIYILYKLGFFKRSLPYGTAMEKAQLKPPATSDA
T1 sequence (P05556 21-798): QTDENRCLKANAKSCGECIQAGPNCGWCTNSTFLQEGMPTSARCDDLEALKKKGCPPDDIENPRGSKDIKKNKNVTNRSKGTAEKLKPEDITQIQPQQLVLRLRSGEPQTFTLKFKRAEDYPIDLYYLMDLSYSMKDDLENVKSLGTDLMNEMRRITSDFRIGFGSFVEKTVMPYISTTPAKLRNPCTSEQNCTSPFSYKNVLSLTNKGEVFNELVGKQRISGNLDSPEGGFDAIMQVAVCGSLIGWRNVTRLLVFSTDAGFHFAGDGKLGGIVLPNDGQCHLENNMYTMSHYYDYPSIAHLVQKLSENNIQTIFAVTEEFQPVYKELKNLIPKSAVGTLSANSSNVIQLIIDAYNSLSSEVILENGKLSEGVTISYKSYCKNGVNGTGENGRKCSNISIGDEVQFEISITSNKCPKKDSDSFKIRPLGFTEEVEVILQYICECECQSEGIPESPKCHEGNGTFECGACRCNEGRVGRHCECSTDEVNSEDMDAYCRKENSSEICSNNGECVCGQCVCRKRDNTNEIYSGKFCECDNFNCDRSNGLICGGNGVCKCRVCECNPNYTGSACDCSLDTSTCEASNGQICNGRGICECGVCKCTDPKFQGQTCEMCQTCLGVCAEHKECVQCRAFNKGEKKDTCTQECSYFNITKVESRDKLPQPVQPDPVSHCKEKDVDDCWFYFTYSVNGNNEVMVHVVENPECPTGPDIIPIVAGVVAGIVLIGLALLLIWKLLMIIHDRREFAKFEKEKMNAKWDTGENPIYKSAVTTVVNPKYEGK
Put plainly: Duolink protein interaction analysis of α5 and β1 integrin in MEC monolayers. The assay is classed as cell-based. The note with it: 100 μM AXT107 compared to vehicle. How it is done: Additionally, changes in the interaction between the α5 and β1 subunits were further investigated using Duolink™ technology which can visualize individual interactions between α5 and β1 integrin subunits as distinct spots by fluorescence microscopy.
Glass bottom, 96-well plates were coated with FN1, seeded with MECs, as described above for the immunofluorescence experiments. After growing for forty-eight hours, cells were serum starved for three hours, treated with 100 μM AXT107 or DMSO vehicle for ninety minutes, washed twice with dPBS containing Ca^2+ and Mg^2+, and fixed in 10% neutral buffered formalin. Cells were blocked in 5% normal goat serum; 0.3% Triton X-100 in dPBS containing Ca^2+ and Mg^2+ for one hour and incubated overnight at 4° C. with rabbit anti-α5 integrin and mouse anti-β1 integrin antibodies in PBS containing Ca^2+ and Mg^2+ with 1% BSA and 0.1% Triton X-100. Interaction spots were developed using DUOLINK green detection reagent according to the manufacturer's instructions and detected using the BD pathway 855 system.

In assay [3] the test system is myosin light chain 2 (MLC2). The experiment in a line: Western blot of MEC lysates for pMLC2. Format: cell-based, human. The settings on record: AXT107 and 200 ng/ml Ang2. How it is done:
Phosphorylation of Tie2 is known to stimulate the Rap1-GTPase pathway, leading to a reduction in the phosphorylation of the downstream motor protein myosin light chain 2 (MLC2) associated with actin rearrangement.
as §2, with “The cultures were then treated with 1 mM sodium vanadate (New England Biolabs, Ipswich, Mass.) for fifteen minutes to enhance the phospho-Tie2 signal followed by stimulation with 200 ng/ml angiopoietin (R&D Systems, Minneapolis, Minn.) for an additional fifteen minutes. The cells were then transferred to ice, washed twice with ice cold Dulbecco's phosphate-buffered saline (dPBS) containing Ca^2+ and Mg^2+, and collected by scraping in 500 μl of 1× Blue Loading Buffer (Cell Signaling, Danvers, Mass.). Lysate samples were then sonicated, boiled, and resolved by SDS-PAGE.” left out

Assay [4] relates to Tie2. The experiment in a line: Tie2 activation in vivo, retinopathy of prematurity (ROP) mouse model. The source says:
To investigate the effects of AXT107 on Tie2 activation in vivo, retinopathy of prematurity (ROP) mouse model was used. In this system, P7 pups are placed in 75% O2 for five days, resulting in a loss of retinal capillary density from hyperoxia and a rapid induction of neovascularization upon the pup's return to normoxic conditions. […] Increased levels of Ang2 in the vitreous contribute to vessel leakage and macular edema in various retinopathies.

For LRRFSTAPFAFIDINDVINF [AXT107], the Tie2 phosphorylation result in the assay on Tie2 [1] (AXT107 (0-100 μM) in combination with 200 ng/ml Ang2) was “significant, dose-dependent increase in Tie2 phosphorylation”. Moreover, the “Influence on Ang1 activity (Tie2 phosphorylation)” value in the assay with Tie2 [1] (MECs on fibronectin, AXT107 then Ang1, data not shown) was “did not significantly influence Ang1 activity”. Also, the “Phosphorylation by peptide alone” value in the assay with Tie2 [1] (absence of either ligand) is listed as “phosphorylation was not induced by peptide alone”. The “Total protein levels of Tie2 and the downstream targets” value in the assay on Tie2 [1] (data not shown) was “remained unchanged”. In addition, in the assay on Erk1/2, the Erk1/2 phosphorylation result is recorded as “remained constant in all tested conditions”. For the same sequence, the “Interactions between α5 and β1 integrin subunits (Duolink)” value in assay [2] is listed as “significantly reduced”. The “Phosphorylation of MLC2” value in assay [3] is listed as “reduced in a dose-dependent manner”. Also, the “Activation of Tie2 by Ang2 in vivo” value with Tie2 [4] was “potentiates the activation of Tie2 by Ang2 both in vitro and in vivo”.
